From publication PMC4183567, “Cysteine Transport through Excitatory Amino Acid Transporter 3 (EAAT3)” (PLoS ONE, 2014)
Values joined by “and” are separate entries in the source; they are usually repeats but may differ in a detail not shown here. Identical values can stand only once.

Assays:
EAAT3 [1] = target: T1, EAAT3 (Homo sapiens, UniProt P43005); assay: Two-electrode voltage clamp transport currents in Xenopus oocytes expressing EAAT3; assay type: cell-based; settings: 1 mM substrate vs 1 mM glutamate, EAAT3 oocytes, -60 mV
T1 sequence (P43005 1-524): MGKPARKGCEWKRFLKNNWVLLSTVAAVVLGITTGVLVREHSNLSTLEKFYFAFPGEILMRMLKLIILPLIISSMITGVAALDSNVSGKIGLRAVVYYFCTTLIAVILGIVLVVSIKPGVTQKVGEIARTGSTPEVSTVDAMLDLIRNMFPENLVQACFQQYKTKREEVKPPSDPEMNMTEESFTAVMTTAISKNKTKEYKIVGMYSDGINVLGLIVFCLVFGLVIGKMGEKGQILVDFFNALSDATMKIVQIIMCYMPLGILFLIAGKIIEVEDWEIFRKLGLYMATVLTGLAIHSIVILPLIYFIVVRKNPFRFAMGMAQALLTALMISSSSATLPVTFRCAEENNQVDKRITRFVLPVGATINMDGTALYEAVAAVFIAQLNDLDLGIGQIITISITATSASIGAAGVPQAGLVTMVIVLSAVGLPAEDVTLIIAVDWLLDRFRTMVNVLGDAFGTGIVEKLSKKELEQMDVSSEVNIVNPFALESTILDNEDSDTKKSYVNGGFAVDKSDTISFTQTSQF
Experimental: (§1) mRNA from linearized pOTV-EAAT1, pOTV-EAAT2 and pOTV-EAAT3 was generated as previously described and resuspended in RNAase-free water and used for oocytes injections. Xenopus oocytes where injected with 50 nl of mRNA and incubated at 18°C in 96 mM NaCl, 2 mM KCl, 1.8 mM CaCl2, 1.0 mM MgCl2, 5 mM HEPES, pH 7.4 (ND96) supplemented with 2.5 mM Sodium Pyruvate and Gentamicyn for 2 to 3 days prior to using in electrophysiological recordings and radio-labeled transport experiments.
(§2) Oocytes were held at −60 mV, and currents elicited by 200 ms voltage steps between −120 mV and +60 mV were filtered at 2 kHz (−3dB) and digitalized with a sampling rate of 10 kHz using a Digidata AD/DA converter (Molecular Devices, Sunnyvale, CA, USA). Borosilicate pipets where filled with 3 M KCl and typical resistances where 0.2 to 1 MΩ. Transport currents were determined at −60 mV in a gluconate-based ND96 solution. In order to dialyze internal chloride, oocytes were incubated 12 to 24 hours in the gluconate solution. Anion currents were determined at positive potentials (+60 mV) after exchanging the external solution to NO3-based ND96 (replacement of 96 mM NaCl with 96 mM NaNO3) solution in the absence or in the presence of 1 mM external substrates. In experiments using cysteine as a substrate, all solutions contained 2 mM dithiothreitol (DTT). Data were analyzed with a combination of pClamp 9.2 (Axon Instrument) and Sigma Plot (Jandel Scientific, San Rafael, CA, USA). Whole cell current amplitudes are shown without any subtraction protocol. Current-voltage relationships were constructed by plotting the isochronal current 6 ms after the voltage step versus the membrane potential. All data are given as the mean ± standard deviation of the mean (SDM). For evaluation the statistical relevance, the Student’s t-Test was used with an α of 0.05.

EAAT1 = target: T2, EAAT1 (Homo sapiens, UniProt P43003); assay: Two-electrode voltage clamp transport currents in Xenopus oocytes expressing EAAT1; assay type: cell-based; settings: 1 mM substrate vs 1 mM glutamate, -60 mV
T2 construct: expressed in transfected cells; host or cells: Xenopus oocytes injected with mRNA
T2 sequence (P43003 whole entry): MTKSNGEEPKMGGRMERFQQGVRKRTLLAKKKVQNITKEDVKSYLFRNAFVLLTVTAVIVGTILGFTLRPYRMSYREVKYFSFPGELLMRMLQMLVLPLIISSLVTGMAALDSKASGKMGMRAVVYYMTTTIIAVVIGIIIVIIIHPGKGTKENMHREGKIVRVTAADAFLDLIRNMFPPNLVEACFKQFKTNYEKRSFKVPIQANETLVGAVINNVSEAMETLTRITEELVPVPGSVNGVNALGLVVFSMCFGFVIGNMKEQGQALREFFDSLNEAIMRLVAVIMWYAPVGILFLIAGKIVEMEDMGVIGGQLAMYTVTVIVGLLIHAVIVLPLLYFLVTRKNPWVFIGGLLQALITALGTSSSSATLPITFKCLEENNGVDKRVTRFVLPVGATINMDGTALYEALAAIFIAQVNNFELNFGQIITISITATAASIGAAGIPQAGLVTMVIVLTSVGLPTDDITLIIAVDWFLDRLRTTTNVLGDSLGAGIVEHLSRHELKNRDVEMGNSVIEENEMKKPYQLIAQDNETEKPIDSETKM
Experimental: as §1
as §2, with “In experiments using cysteine as a substrate, all solutions contained 2 mM dithiothreitol (DTT).” left out, “Whole cell current amplitudes are shown without any subtraction protocol. Current-voltage relationships were constructed by plotting the isochronal current 6 ms after the voltage step versus the membrane potential. All data are given as the mean ± standard deviation of the mean (SDM). For evaluation the statistical relevance, the Student’s t-Test was used with an α of 0.05.” left out

EAAT2 [2] = target: T3, EAAT2 (Homo sapiens, UniProt P43004); assay: Two-electrode voltage clamp transport currents in Xenopus oocytes expressing EAAT2; assay type: cell-based; settings: 1 mM substrate vs 1 mM glutamate, -60 mV
T3 sequence (P43004 whole entry): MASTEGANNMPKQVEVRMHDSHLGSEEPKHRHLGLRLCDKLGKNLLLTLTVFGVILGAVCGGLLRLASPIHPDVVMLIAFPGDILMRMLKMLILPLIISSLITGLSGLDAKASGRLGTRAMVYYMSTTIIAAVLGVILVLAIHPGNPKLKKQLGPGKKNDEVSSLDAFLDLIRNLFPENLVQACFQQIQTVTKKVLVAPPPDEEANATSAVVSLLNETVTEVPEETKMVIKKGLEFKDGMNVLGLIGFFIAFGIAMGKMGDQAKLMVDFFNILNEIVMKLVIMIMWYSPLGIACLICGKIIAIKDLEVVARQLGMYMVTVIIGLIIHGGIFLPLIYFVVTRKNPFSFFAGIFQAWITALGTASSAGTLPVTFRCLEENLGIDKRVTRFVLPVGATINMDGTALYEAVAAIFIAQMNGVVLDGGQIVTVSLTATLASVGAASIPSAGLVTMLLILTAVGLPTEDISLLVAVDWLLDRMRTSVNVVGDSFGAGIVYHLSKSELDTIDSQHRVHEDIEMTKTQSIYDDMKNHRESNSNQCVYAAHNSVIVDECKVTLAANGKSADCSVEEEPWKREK
Experimental: as §1
as §2, with “In experiments using cysteine as a substrate, all solutions contained 2 mM dithiothreitol (DTT).” left out, “Whole cell current amplitudes are shown without any subtraction protocol. Current-voltage relationships were constructed by plotting the isochronal current 6 ms after the voltage step versus the membrane potential. All data are given as the mean ± standard deviation of the mean (SDM). For evaluation the statistical relevance, the Student’s t-Test was used with an α of 0.05.” left out

EAAT3 and ASCT1 [3] = assay: Release of preloaded [35S]-L-cysteine from Xenopus oocytes co-expressing EAAT3 and ASCT1; assay type: cell-based, human
Experimental: mRNA from linearized pOTV-EAAT1, pOTV-EAAT2 and pOTV-EAAT3 was generated as previously described and resuspended in RNAase-free water and used for oocytes injections.
(§3) Oocytes were washed 3 times in ND96 buffer followed by incubation for 10 min with non-radiolabeled substrates as indicated. The supernatant was removed and collected for scintillation counting, while the oocytes were lysed in 1% sodium dodecylsulfate (SDS). The oocytes lysate and supernatant were counted separately by liquid scintillation counting to determine both retained and released radioactivity respectively. Percent of released radioactivity was determined as a function of the released/(retained + released).

EAAT3 and ASCT1 [4] = target: T4, EAAT3 and ASCT1 (Homo sapiens, UniProt P43005); assay: Release of preloaded [3H]-L-glutamate from Xenopus oocytes co-expressing EAAT3 and ASCT1; assay type: cell-based; settings: extracellular cysteine, concentration not given
T4 construct: expressed in transfected cells; host or cells: Xenopus oocytes
T4 sequence (P43005 1-524): T1 sequence (P43005 1-524)
Experimental: as §1, §3

[5] = Protonation state calculated with the Henderson-Hasselbalch equation; assay type: physicochemical
EAAT2 [6] = tested on: EAAT2; design: method as in PMID 8782106; settings: EAAT2, low affinity; read-out: Km for cysteine transport; cited from earlier work
EAAT3 [7] = tested on: EAAT3; design: method as in PMID 8782106; settings: EAAT3 vs other EAATs; cited from earlier work
EAAT2 [8] = target: T3, EAAT2; assay: Substrate inhibition of [3H]-L-glutamate uptake in HEK293 cells expressing EAAT2; assay type: cell-based; design: expressed in transfected cells; host or cells: HEK293; settings: read-out: inhibition of glutamate transport; EAAT2 HEK293 cells, 1 mM inhibitor
Experimental: (§4) For radiolabeled transport experiments, 2×10^6 cells were transfected in 1 mL of Opti-Mem (Life Technologies) using 6 µL of Lipofectamine 2000 (Invitrogen) with 1 µg pCMV-EAAT2 or pCMV-EAAT3 DNA and plated at 5×10^4 cells/well in 24 well Costar (Corning) plates with 0.5 mL DMEM culture media prepared as above. Following transfection and plating, cells were cultured 2–3 days prior to [^3H]-L-Glutamate transport experiments.
(§5) Transport was allowed to proceed for 10 min and was terminated by 3 washes with cold perfusion buffer. Cells were lysed with 1% SDS/0.1N NaOH and radioactivity determined by scintillation counting. Data analysis was performed using Graphpad Prism (Graphpad Software Inc.).

EAAT3 [9] = target: T1, EAAT3; assay: Substrate inhibition of [3H]-L-glutamate uptake in HEK293 cells expressing EAAT3; assay type: cell-based; design: expressed in transfected cells; host or cells: HEK293
Experimental: as §4, §5

EAAT2 [10] = target: T3, EAAT2; assay: mEGFPpH fluorescence imaging of intracellular pH in HEK293 cells co-expressing EAAT2; assay type: cell-based; design: expressed in transfected cells; host or cells: HEK293
Text: (§6) Cells expressing mEGFPpH were imaged with a Zeiss Axiovert 135T inverted microscope with a 40X NeoFluar oil immersion objective (NA1.3). A Lambda DG4 (Sutter Instrument Co.) equipped with a xenon arc lamp was used for high-speed excitation wavelength switching. Images were collected using either a Quantix (Roper Scientific, Tucson, AZ) or an Orca ER (Hammamatsu Co.) cooled CCD. For pH imaging experiments, the fluorescence filters (Omega Optical) were: excitation 405±20 and 485±7.5; dichroic 400-480-585DLRP; emission 510±11.5. Software control and data acquisition were accomplished using Axon Imaging Workbench (INDEC Biosystems) or OpenLab acquisition software (Improvision, Perkin Elmer). Cells were incubated at room temperature with continuous perfusion using standard buffer containing (in mM): 146 NaCl, 5 KCl, 5 HEPES, 2.5 CaCl2 and 1.2 MgCl2 at pH 7.35 with additions (substrates etc.) as indicated in figure legends. Acquisition exposure times were identical for both 405 nm and 485 nm excitation wavelengths adjusted so that the 510 emission was not saturated for either excitation wavelength. Prior to perfusion with buffers containing substrates, cells were perfused in standard buffer to achieve a stable base line. Fluorescence was reported as the ratio of fluorescence at 510 nm by excitation with 485 and 405 nm wavelengths (F485/F405).

EAAT3 [11] = target: T1, EAAT3; assay: mEGFPpH fluorescence imaging of intracellular pH in HEK293 cells co-expressing EAAT3; settings: EAAT3 HEK293 cells
Text: as §6

N[C@@H](CS)C(=O)O [cysteine, L-cysteine]
transport current amplitude relative to glutamate transport current (EAAT3 [1]): 86±14% | transport current amplitude relative to glutamate transport current (EAAT1): 33±1.5% | transport current amplitude relative to glutamate transport current (EAAT2 [2]): 7.0±4.2% | fold increase of [35S]-cysteine release over that released by glutamate application (EAAT3 and ASCT1 [3]; 300 µM cysteine vs 100 µM glutamate): 5 fold | release of preloaded [35S]-L-cysteine (EAAT3 and ASCT1 [3]; 300 µM extracellular substrate, 10 min): 10% | release of loaded [3H]-L-glutamate (EAAT3 and ASCT1 [4]): 7.5% | fraction in thiolate form ([5]; pH 6.9): ~3.8% and 4% | fraction in thiolate (R-S-) form ([5]; pH 8.5): ~61% | fraction in thiolate form ([5]; pH = 7.5): ~14% | fraction protonated ([5]; physiological pH): ~90% | Km (EAAT2 [6]): > 1000 µM | fold higher apparent affinity for transport (Km) than the other members of the family (EAAT3 [7]): approximately 10 fold | inhibition at 1000 µM (EAAT2 [8]): 20% | IC50 (EAAT3 [9]): 631 ± 50 µM | inhibition at 1000 µM (EAAT3 [9]; read-out: inhibition of glutamate uptake, EAAT3 HEK293 cells, 1 mM inhibitor): 70% | mEGFPpH fluorescence change (EAAT2 [10]; 1 mM perfusion): did not produce observable fluorescence changes from baseline | slope of fluorescence change normalized to that of 100 µM glutamate (EAAT2 [10]; selenocysteine at 100 µM): no observable fluorescence changes | mEGFPpH fluorescence change (EAAT3 [11]; 1 mM perfusion): increase in mEGFPpH fluorescence | slope of fluorescence change normalized to that of 100 µM glutamate (EAAT3 [11]; selenocysteine at 100 µM, cysteine change opposite in direction): 0.28±0.03
